Assay results reported in ChEMBL document CHEMBL4145648, “Swinhoeisterols from the South China Sea Sponge Theonella swinhoei” (J Nat Prod, 2018).

What follows are molecules tested against Histone acetyltransferase p300 (Homo sapiens, UniProt Q09472) (assay: Inhibition of human p300 expressed in Escherichia coli incubated for 15 mins followed by [3H]acetyl-CoA/histone addition).
Sequence of Histone acetyltransferase p300 (Q09472 whole entry): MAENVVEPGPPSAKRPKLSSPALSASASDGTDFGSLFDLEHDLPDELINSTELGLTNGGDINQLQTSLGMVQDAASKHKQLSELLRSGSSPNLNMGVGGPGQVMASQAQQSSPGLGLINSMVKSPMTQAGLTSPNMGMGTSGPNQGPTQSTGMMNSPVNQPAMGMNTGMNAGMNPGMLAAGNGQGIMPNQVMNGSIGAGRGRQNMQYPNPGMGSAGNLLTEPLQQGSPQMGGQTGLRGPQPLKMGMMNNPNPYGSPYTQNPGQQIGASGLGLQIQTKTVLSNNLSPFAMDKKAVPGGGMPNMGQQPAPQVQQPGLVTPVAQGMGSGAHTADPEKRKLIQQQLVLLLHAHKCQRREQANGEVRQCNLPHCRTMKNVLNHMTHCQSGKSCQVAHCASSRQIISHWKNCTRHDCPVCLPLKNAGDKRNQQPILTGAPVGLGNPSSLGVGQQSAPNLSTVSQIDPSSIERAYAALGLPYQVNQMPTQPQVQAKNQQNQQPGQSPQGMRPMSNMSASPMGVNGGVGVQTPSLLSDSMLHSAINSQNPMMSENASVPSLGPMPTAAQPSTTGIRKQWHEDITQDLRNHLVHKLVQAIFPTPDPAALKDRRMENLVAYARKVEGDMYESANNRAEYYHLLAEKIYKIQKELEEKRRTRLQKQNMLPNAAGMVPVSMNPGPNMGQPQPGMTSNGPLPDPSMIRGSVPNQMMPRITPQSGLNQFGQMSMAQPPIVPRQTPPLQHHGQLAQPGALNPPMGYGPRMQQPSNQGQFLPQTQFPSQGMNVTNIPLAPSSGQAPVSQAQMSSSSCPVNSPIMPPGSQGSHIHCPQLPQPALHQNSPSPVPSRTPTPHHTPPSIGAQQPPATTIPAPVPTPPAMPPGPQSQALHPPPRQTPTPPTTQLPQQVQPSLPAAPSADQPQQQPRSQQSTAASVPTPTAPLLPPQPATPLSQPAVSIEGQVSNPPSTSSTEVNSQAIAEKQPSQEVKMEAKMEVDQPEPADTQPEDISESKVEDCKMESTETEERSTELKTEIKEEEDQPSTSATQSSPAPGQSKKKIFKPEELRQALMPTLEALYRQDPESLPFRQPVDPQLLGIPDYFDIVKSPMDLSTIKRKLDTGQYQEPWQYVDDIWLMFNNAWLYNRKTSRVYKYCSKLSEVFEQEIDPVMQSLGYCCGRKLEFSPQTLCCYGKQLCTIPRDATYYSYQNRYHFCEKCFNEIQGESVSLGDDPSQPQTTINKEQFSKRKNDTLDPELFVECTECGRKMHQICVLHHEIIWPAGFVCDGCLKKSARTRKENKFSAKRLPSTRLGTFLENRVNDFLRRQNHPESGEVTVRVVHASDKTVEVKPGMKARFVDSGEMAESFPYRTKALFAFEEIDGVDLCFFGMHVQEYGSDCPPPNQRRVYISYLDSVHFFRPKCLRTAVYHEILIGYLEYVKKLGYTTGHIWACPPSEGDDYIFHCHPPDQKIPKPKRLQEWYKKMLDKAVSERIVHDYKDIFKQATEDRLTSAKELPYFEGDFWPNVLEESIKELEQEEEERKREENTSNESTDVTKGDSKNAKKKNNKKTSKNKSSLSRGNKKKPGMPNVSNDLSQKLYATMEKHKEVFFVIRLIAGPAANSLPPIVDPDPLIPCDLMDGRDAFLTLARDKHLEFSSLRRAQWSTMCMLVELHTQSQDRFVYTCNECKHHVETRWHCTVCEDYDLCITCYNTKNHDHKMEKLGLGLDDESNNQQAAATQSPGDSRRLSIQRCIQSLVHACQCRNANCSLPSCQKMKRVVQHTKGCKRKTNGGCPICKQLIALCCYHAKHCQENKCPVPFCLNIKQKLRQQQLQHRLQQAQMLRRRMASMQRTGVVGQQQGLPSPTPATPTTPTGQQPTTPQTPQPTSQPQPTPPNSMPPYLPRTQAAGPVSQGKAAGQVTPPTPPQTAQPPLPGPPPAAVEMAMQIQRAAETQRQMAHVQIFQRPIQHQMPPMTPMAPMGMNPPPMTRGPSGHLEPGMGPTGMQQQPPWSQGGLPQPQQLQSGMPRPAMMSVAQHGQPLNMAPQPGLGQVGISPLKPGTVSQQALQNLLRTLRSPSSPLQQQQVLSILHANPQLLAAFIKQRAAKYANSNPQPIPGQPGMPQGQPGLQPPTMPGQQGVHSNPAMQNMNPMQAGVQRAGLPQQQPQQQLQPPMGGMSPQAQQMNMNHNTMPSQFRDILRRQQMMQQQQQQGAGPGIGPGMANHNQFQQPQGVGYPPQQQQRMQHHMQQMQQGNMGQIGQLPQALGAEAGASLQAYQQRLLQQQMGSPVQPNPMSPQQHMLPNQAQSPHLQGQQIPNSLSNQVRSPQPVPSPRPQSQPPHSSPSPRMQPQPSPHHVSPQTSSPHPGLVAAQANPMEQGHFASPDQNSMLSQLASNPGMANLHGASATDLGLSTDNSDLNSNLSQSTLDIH

Structure (SMILES) | IC50
C=C1[C@@H](O)CC[C@]2(C)[C@H]3CC[C@@]4(C)[C@]35O[C@]4([C@H](C)CC[C@@H](C)C(C)C)CCC(=O)[C@@H]5C[C@@H]12 | > 10 µM
C=C1[C@@H](O)CC[C@@]2(C)[C@H]1C[C@]1(O)C(=O)CC[C@H]([C@H](C)CC[C@@H](C)C(C)C)[C@@]3(C)CC[C@]24O[C@@]413 | > 10 µM
C=C1[C@@H](O)CC[C@@]2(C)[C@H]1C[C@H]1C(=O)CC[C@H]([C@H](C)CC[C@@H](C)C(C)C)[C@@]3(C)CC[C@]24O[C@]143 | 8.8 µM

Results, then the molecule that gave them:

IC50 | Structure (SMILES)
3.3 µM | C=C1[C@@H](O)CC[C@]2(C)C3=C4[C@@H](C[C@@H]12)C(=O)CC[C@H]([C@H](C)CC[C@@H](C)C(C)C)[C@@]4(C)CC3
> 10 µM | C=C1[C@@H](O)CC[C@@]2(C)[C@H]1CC1=C3[C@@H]2CC[C@]3(C)[C@@H]([C@H](C)CC[C@@H](C)C(C)C)CCC1=O
0.5 µM | C=C(C)[C@H](CC=C(C)C)C[C@]12C[C@H](CC=C(C)C)C(C)(C)[C@](CC=C(C)C)(C(=O)C(C(=O)c3ccc(O)c(O)c3)=C1O)C2=O
